In brackets after ≈: the same amount, converted by molar mass.

Usually IC50 stands for the point on the concentration scale where inhibition reaches its midpoint. In general, GI50 refers to the concentration that inhibits growth by half.

Assay [1] relates to HeLa. Description: Antiproliferative activity against human HeLa cells assessed as reduction in cell viability after 24 hrs by MTT assay. Type of assay: functional, cell-based. In general terms: Tetrazolium dyes change colour on reduction, which living cells bring about.
The subject of the next assay is SK-BR-3. The experiment in a line: Antiproliferative activity against human SKBR3 cells assessed as reduction in cell viability after 24 hrs by MTT assay. As to conditions: SK-BR-3, 24 h. Format: functional, cell-based.
Assay [2] has as its system HepG2. The experiment in a line: Antiproliferative activity against human HepG2 cells assessed as reduction in cell viability after 24 hrs by MTT assay. Format: functional, cell-based. Conditions: HepG2, 24 h.
Assay [3] relates to PC-3. The experiment in a line: cells. Type of assay: functional, cell-based. Conditions: Homo sapiens, PC-3, 48 h.
Description: Antiproliferative activity against human PC3 cells assessed as reduction in cell viability after 48 hrs by MTT assay
A further assay relates to SW-620. The experiment in a line: cells. Format: functional, cell-based. As to conditions: Homo sapiens, SW-620, 48 h.
Another assay deals with ASPC1. Description: cells. Conditions: Homo sapiens, ASPC1, 48 h. Type of assay: functional, cell-based.
The subject of another assay is NCI-H23. The experiment in a line: cells. As to conditions: Homo sapiens, NCI-H23, 48 h. Format: functional, cell-based.
Assay [4] in a line: Antiproliferative activity against human GBM2 cells assessed as reduction in cell viability after 72 hrs by MTT assay. Type of assay: functional, cell-based. Conditions: GBM2, 72 h.
Assay [5] can be described thus: Antiproliferative activity against human GBM95 cells assessed as reduction in cell viability after 72 hrs by MTT assay. Format: functional, cell-based.
Assay [6] is described as follows: Potency index, ratio of temozolomide IC50 to test compound IC50 for antiproliferative activity against human GBM2 cells. Format: functional.
Assay [7] can be described thus: Potency index, ratio of temozolomide IC50 to test compound IC50 for antiproliferative activity against human GBM95 cells. Type of assay: functional.
The subject of the next assay is OVCAR-3. Description: Antiproliferative activity against human OVCAR3 cells by SRB assay. Format: functional. (In general: The SRB assay estimates cell density from bound dye.)
A further assay relates to Caov-3 cell line. Description: Antiproliferative activity against human Caov3 cells by SRB assay. Format: functional.
In the next assay the test system is SK-OV-3. The experiment in a line: Antiproliferative activity against human SKOV3 cells by SRB assay. Type of assay: functional, cell-based.
In assay [8] the test system is K562. The experiment in a line: Antiproliferative activity against human K562 cells assessed as reduction in cell viability after 24 hrs by MTT assay. Type of assay: functional, cell-based. As to conditions: K562, 24 h.
Assay [9] deals with PC-3. The experiment in a line: Antiproliferative activity against human PC3 cells assessed as reduction in cell viability after 24 hrs by MTT assay. Type of assay: functional, cell-based. Conditions: PC-3, 24 h.
Another assay relates to A-431. The experiment in a line: Antiproliferative activity against human A431 cells assessed as reduction in cell viability after 24 hrs by MTT assay. Format: functional, cell-based. Conditions: A-431, 24 h.
For assay [10], the system named is MDA-MB-231. Description: Antiproliferative activity against human MDA-MB-231 cells assessed as reduction in cell viability after 24 hrs by MTT assay. Type of assay: functional, cell-based. Conditions: MDA-MB-231, 24 h.
A further assay relates to COLO 205. The experiment in a line: Antiproliferative activity against human COLO205 cells assessed as reduction in cell viability after 24 hrs by MTT assay. Format: functional, cell-based. Conditions: COLO 205, 24 h.
The subject of assay [11] is A549. Description: Antiproliferative activity against human A549 cells assessed as reduction in cell viability after 24 hrs by MTT assay. As to conditions: A549, 24 h. Format: functional, cell-based.
The test system of assay [12] is MCF7. Description: Antiproliferative activity against human MCF7 cells assessed as reduction in cell viability after 48 hrs by MTT assay. Format: functional, cell-based. Conditions: MCF7, 48 h.
Assay [13] concerns HCT-116. Description: Antiproliferative activity against human HCT116 cells assessed as reduction in cell viability after 48 hrs by MTT assay. Format: functional, cell-based. As to conditions: HCT-116, 48 h.
Assay [14] deals with MDA-MB-231. Description: Antiproliferative activity against human MDA-MB-231 cells assessed as reduction in cell viability after 48 hrs by MTT assay. Type of assay: functional, cell-based. As to conditions: MDA-MB-231, 48 h.
Assay [15] has as its system A549. Description: cells. Type of assay: functional, cell-based. As to conditions: Homo sapiens.
Description: Antiproliferative activity against human A549 cells by MTT assay
In assay [16] the test system is MCF7. The experiment in a line: Antiproliferative activity against human MCF7 cells assessed as reduction in cell viability after 72 hrs by MTT assay. Conditions: MCF7, 72 h. Format: functional, cell-based.
Assay [17] concerns HeLa. Description: Antiproliferative activity against human HeLa cells by SRB assay. Format: functional, cell-based.
For assay [18], the system named is MDA-MB-231. The experiment in a line: Antiproliferative activity against human MDA-MB-231 cells by SRB assay. Format: functional.
A further assay concerns T47D. Description: Antiproliferative activity against human T47D cells assessed as reduction in cell viability after 48 hrs by MTT assay. Format: functional, cell-based.
The test system of another assay is Caco-2. The experiment in a line: Antiproliferative activity against human Caco2 cells assessed as reduction in cell viability after 48 hrs by MTT assay. Type of assay: functional, cell-based. As to conditions: Caco-2, 48 h.
A short description of assay [19]: Antiproliferative activity against human MiaPaCa cells by SRB assay. Type of assay: functional. As to conditions: MIA PaCa-2.
The subject of assay [20] is IMR-32. The experiment in a line: Antiproliferative activity against human IMR32 cells by SRB assay. Format: functional.
Assay [21] concerns HeLa. The experiment in a line: Antiproliferative activity against human HeLa cells assessed as reduction in cell viability after 48 hrs by MTT assay. Format: functional, cell-based.
The subject of assay [22] is MDA-MB-231. Description: Antiproliferative activity against human MDA-MB-231 cells assessed as reduction in cell viability after 72 hrs by MTT assay. As to conditions: MDA-MB-231, 72 h. Type of assay: functional, cell-based.
In a further assay the test system is U-87 MG. The experiment in a line: Antiproliferative activity against human U87 cells assessed as reduction in cell viability after 72 hrs by MTT assay. Type of assay: functional, cell-based, U-87MG ATCC.
For a further assay, the system named is HT-29. Description: Antiproliferative activity against human HT-29 cells assessed as reduction in cell viability after 72 hrs by MTT assay. Type of assay: functional, cell-based. Conditions: HT-29, 72 h.
In a further assay the test system is MOLT-4. Description: Antiproliferative activity against human MOLT4 cells assessed as reduction in cell viability after 72 hrs by MTT assay. Format: functional, cell-based. As to conditions: MOLT-4, 72 h.
Another assay has as its system SiHa. Description: Growth inhibition in human SiHa cells after 48 hrs by SRB assay. Format: functional.
A further assay deals with PANC-1. The experiment in a line: Growth inhibition in human PANC1 cells after 48 hrs by SRB assay. Type of assay: functional. As to conditions: PANC-1, 48 h.
For assay [23], the system named is MDA-MB-231. The experiment in a line: Growth inhibition in human MDA-MB-231 cells after 48 hrs by SRB assay. As to conditions: MDA-MB-231, 48 h. Format: functional.
The test system of assay [24] is IMR-32. The experiment in a line: Growth inhibition in human IMR32 cells after 48 hrs by SRB assay. Type of assay: functional. As to conditions: IMR-32, 48 h.
Assay [25] concerns DU-145. The experiment in a line: Growth inhibition in human DU145 cells after 48 hrs by SRB assay. Type of assay: functional. Conditions: DU-145, 48 h.
For assay [26], the system named is A549. Description: Growth inhibition in human A549 cells after 48 hrs by SRB assay. Format: functional. Conditions: A549, 48 h.
The test system of assay [27] is IMR-32. Description: Antiproliferative activity against human IMR32 cells assessed as reduction in cell viability after 72 hrs by MTT assay. Format: functional, cell-based. As to conditions: IMR-32, 72 h.
For assay [28], the system named is MDA-MB-231. Description: cells. As to conditions: Homo sapiens.
Description: Antiproliferative activity against human MDA-MB-231 cells assessed as reduction in cell viability preincubated for 24 hrs under hypoxia condition further incubated for 72 hrs under normaxic condition by MTT assay
Assay [29] relates to MCF7. The experiment in a line: cells. As to conditions: Homo sapiens. Format: functional, cell-based.
Description: Antiproliferative activity against human MCF7 cells by MTT assay
In assay [30] the test system is HepG2. Description: Antiproliferative activity against human HepG2 cells by MTT assay. Type of assay: functional, cell-based.
Assay [31] has as its system HeLa. The experiment in a line: Antiproliferative activity against human HeLa cells by MTT assay. Format: functional, cell-based.
For assay [32], the system named is DU-145. Description: Antiproliferative activity against human DU145 cells by MTT assay. Format: functional, cell-based.
Assay [33] concerns PC-3. Description: Antiproliferative activity against human PC3 cells by MTT assay. Type of assay: functional, cell-based.
A further assay concerns NIH3T3. The experiment in a line: Antiproliferative activity against mouse NIH/3T3 cells by MTT assay. Type of assay: functional, cell-based.
The test system of assay [34] is HCT-116. The experiment in a line: Antiproliferative activity against human HCT116 cells by MTT assay. Type of assay: functional, cell-based.
Assay [35] has as its system K562. The experiment in a line: Antiproliferative activity against human K562 cells by MTT assay. Type of assay: functional, cell-based.
The subject of a further assay is LoVo. The experiment in a line: Antiproliferative activity against human LoVo cells by MTT assay. Type of assay: functional, cell-based.

Description for ASPC1: Antiproliferative activity against human Aspc-1 cells assessed as reduction in cell viability after 48 hrs by MTT assay
Description for NCI-H23: Antiproliferative activity against human NCI-H23 cells assessed as reduction in cell viability after 48 hrs by MTT assay
Description for SW-620: Antiproliferative activity against human SW620 cells assessed as reduction in cell viability after 48 hrs by MTT assay

In the case of `COc1ccc(-c2nnn(Cc3cc(F)ccc3F)c2-c2nc3cc(C)ccc3o2)cc1`, the IC50 in the assay on HeLa [1] came out at 6.8 µg/mL (≈ 15.7 µM); in the assay on SK-BR-3, 7.1 µg/mL (≈ 16.4 µM); with HepG2 [2], 11.2 µg/mL (≈ 25.9 µM).
As for `Cc1ccc2c(c1)/C(=N\O)C(=O)N2Cc1cn(CCCC(=O)NO)nn1`, the 50% inhibitory concentration (IC50) with PC-3 [3], with SW-620, in the assay with ASPC1 and in the assay on NCI-H23 was 0.49 to 0.76 µM throughout.
In the case of `O=Cc1ccccc1-n1cc(COc2cccc(OCc3cn(-c4ccccc4C=O)nn3)c2)nn1`, the IC50 in [4] is 30.3 µM; in assay [5], 38.2 µM. Also, the “Ratio IC50” value in assay [6] came to 37.3; in assay [7], 16.3.
Take `COc1cc(O)c2c(=O)cc(-c3ccc(OCc4cn(-c5ccccc5F)nn4)cc3)oc2c1`: the GI50 with OVCAR-3, with Caov-3 cell line and in the assay with SK-OV-3 was 10 to 20 µM throughout.
For the molecule `COc1cccc2c1C(=O)c1c(O)c3c(c(O)c1C2=O)C[C@@](O)(C(=O)CO)C[C@@H]3O[C@H]1C[C@H](N)[C@H](O)[C@H](C)O1` [DOXORUBICIN], the IC50 with K562 [8], in the assay with PC-3 [9], in the assay on A-431, in the assay with MDA-MB-231 [10], with COLO 205 and in the assay on A549 [11] was 1.43 to 12 µM in each case. Further, the IC50 with MCF7 [12] was 1 to 10 µM; with HCT-116 [13], 0.55 to 10 µM; in the assay with MDA-MB-231 [14], 0.55 to 4.63 µM; in the assay on A549 [15], 3.3 µM; with MCF7 [16], 0.015 to 0.335 µM; with T47D it was 1 to 10 µM. The IC50 in the assay on Caco-2 was in the range of 1 to 10 µM; with HeLa [21], 0.55 to 4.63 µM; in the assay on MDA-MB-231 [22] it was 0.08 to 0.425 µM; with U-87 MG it was 0.08 to 0.425 µM; in the assay with HT-29, 0.015 to 0.335 µM; with MOLT-4, 0.015 to 0.335 µM. Besides, the IC50 in the assay with IMR-32 [27] was 0.08 to 0.425 µM; in the assay on MDA-MB-231 [28], 0.6 µM. Further, the GI50 in the assay with HeLa [17] is 0.023 to 0.097 µM; with MDA-MB-231 [18], 0.023 to 0.097 µM; in assay [19], 0.023 to 0.097 µM; with IMR-32 [20], 0.023 to 0.097 µM; with SiHa, under 0.01 µM; in the assay on PANC-1, under 0.01 µM. The GI50 in the assay with MDA-MB-231 [23], in the assay with IMR-32 [24], in the assay with DU-145 [25] and in the assay on A549 [26] was under 0.01 µM in each case.
Take `COc1cc([C@@H]2c3cc4c(cc3[C@H](O)[C@H]3COC(=O)[C@H]23)OCO4)cc(OC)c1OC` [PODOFILOX]: the IC50 is 3.06 to 34.4 µM in the assay with MCF7 [29]; 3.06 to 6.63 µM in the assay with HepG2 [30]; 3.06 to 34.4 µM with A549 [15]; 3.06 to 6.63 µM in the assay on HeLa [31]; 3.06 to 6.63 µM in the assay on DU-145 [32]; 3.06 to 34.4 µM in the assay with PC-3 [33]. Further, the half-inhibitory concentration (IC50) in the assay on NIH3T3 fell in the range of 3.06 to 6.63 µM.
As for `O=C(CCCCCCC(=O)Nc1ccccc1)NO` [VORINOSTAT], the IC50 in the assay with HCT-116 [34], in the assay on HepG2 [30], in the assay with K562 [35] and with LoVo was 4.95 to 7.11 µM each time.
